{"source": "patent US6608222B2", "about": "“Bioactive conjugated linoleic acid glycerides and method of use” (Alpha Food Ingredients, Inc., priority 2000, dated 2003)", "origin": "cited, not measured here", "test_system": "hamsters", "conditions": "feeding studies with hamsters; compared with a composite group of CLA-FFA isomers", "data": [{"smiles": "CCCCCC/C=C/C=C\\CCCCCCCC(=O)O", "note": "[purified c-9, t-11 CLA-FFA, cis-9, trans-11-octadecadienoic acid]", "values": [{"measurement": "biological activity", "value": "not so biologically active as a composite group of CLA-FFA isomers"}]}]}
